Measurements reported in patent US20150274719A1, “AMINO-SUBSTITUTED IMIDAZO[1,2-A]PYRIDINECARBOXAMIDES AND THEIR USE” (BAYER PHARMA AKTIENGESELLSCHAFT, priority 2012, published 2015).
Where a name gives a salt, the structure may show the parent alone.

Biological target: T1, recombinant guanylate cyclase reporter cell line (Rattus norvegicus, UniProt P19686+P20595)
T1 construct: expressed in transfected cells; host or cells: recombinant reporter cell line
T1 sequence (P19686 1-690): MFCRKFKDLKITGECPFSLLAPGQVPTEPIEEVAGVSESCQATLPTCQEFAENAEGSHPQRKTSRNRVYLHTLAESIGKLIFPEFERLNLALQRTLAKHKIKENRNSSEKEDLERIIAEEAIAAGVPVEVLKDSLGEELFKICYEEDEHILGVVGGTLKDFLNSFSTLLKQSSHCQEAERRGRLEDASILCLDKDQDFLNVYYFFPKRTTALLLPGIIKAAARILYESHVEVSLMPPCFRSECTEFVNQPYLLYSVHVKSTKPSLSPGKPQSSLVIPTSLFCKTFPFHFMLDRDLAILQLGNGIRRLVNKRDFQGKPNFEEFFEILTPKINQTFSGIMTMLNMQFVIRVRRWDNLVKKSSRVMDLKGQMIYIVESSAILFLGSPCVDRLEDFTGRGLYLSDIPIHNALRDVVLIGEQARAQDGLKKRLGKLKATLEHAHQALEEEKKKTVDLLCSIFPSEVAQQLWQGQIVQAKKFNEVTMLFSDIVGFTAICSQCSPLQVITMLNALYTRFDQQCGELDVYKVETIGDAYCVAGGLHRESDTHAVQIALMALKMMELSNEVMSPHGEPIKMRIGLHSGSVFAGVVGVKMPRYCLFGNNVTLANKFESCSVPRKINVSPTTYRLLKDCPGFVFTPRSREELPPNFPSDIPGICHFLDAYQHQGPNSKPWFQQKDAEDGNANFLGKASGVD
T1 sequence (P20595 1-619): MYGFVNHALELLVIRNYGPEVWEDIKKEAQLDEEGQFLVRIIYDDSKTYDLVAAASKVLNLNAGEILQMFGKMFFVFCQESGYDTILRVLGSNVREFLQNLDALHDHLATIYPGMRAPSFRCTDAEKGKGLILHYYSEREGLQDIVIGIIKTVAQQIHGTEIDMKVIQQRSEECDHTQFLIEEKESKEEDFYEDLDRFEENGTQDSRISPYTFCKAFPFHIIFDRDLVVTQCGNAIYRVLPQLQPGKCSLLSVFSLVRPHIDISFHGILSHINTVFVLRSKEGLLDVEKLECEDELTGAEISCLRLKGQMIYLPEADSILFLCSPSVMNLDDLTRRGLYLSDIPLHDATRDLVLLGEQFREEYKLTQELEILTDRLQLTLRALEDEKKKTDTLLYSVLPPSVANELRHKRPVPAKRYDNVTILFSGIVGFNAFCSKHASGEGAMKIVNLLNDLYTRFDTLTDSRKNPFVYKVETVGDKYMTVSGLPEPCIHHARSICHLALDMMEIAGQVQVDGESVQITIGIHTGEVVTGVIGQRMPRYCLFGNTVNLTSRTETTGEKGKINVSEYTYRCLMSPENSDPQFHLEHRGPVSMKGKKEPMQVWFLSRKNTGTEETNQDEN
Test: Action on recombinant guanylate cyclase reporter cell line
Assay type: cell-based
Conditions: in some cases mean values from individual determinations
How it was run: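 Whole-cell reporter assay with recombinant guanylate cyclase; endpoint = minimal effective concentration.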

| SMILES | MEC (minimal effective concentration) [µM] |
| --- | --- |
| Cc1cc(OCc2c(F)cccc2F)c2nc(C)c(C(=O)NCC3CSCCN3)n2c1 (racemic) [Example 366, rac-8-[(2,6-difluorobenzyl)oxy]-2,6-dimethyl-N-(thiomorpholin-3-ylmethyl)imidazo[1,2-a]pyridine-3-carboxamide] | 0.10 |
| COC(=O)[C@@H](N)CCCCNC(=O)c1c(C)nc2c(OCc3c(F)cccc3F)cc(C)cn12 [Example 294, Methyl N^6-({8-[(2,6-difluorobenzyl)oxy]-2,6-dimethylimidazo[1,2-a]pyridin-3-yl}carbonyl)-L-lysinate] | 0.065 |
| CCCC(C)(N)CNC(=O)c1c(C)nc2c(OCc3c(F)cccc3OC)cc(C)cn12 (racemic) [Example 351, rac-N-(2-amino-2-methylpentyl)-8-[(2-fluoro-6-methoxybenzyl)oxy]-2,6-dimethylimidazo[1,2-a]pyridine-3-carboxamide] | 3.00 |
| Cc1cc(OCc2c(F)cccc2F)c2nc(C)c(C(=O)N[C@@H]3CCCC[C@H]3N)n2c1 [Example 251, ent-N-[(1R,2R)-2-Aminocyclohexyl]-8-[(2,6-difluorobenzyl)oxy]-2,6-dimethylimidazo[1,2-a]-pyridine-3-carboxamide] | 3.00 |
| Cc1nc2c(OCc3c(F)cccc3F)cccn2c1C(=O)NC1CCCN(C)C1 (racemic) [Example 84, rac-8-[(2,6-difluorobenzyl)oxy]-2-methyl-N-(1-methylpiperidin-3-yl)imidazo[1,2-a]-pyridine-3-carboxamide] | 1.00 |
| Cc1nc2c(OCc3c(F)cccc3F)cc(Cl)cn2c1C(=O)NCCN1CCN(C)CC1 [Example 154, 6-chloro-8-[(2,6-difluorobenzyl)oxy]-2-methyl-N-[2-(4-methylpiperazin-1-yl)ethyl]imidazo[1,2-a]pyridine-3-carboxamide] | 1.00 |
| COCC(C)(N)CNC(=O)c1c(C)nc2c(OCc3c(F)cccc3F)cc(Cl)cn12 (single isomer, unassigned) [Example 197, ent-N-(2-Amino-3-methoxy-2-methylpropyl)-6-chloro-8-[(2,6-difluorobenzyl)oxy]-2-methylimidazo[1,2-a]pyridine-3-carboxamide] | 1.00 |
| Cc1nc2c(OCc3c(F)cccc3F)cccn2c1C(=O)NC12CNCCC1C2 (single isomer, unassigned) [Example 185, ent-N-(3-Azabicyclo[4.1.0]hept-1-yl)-8-[(2,6-difluorobenzyl)oxy]-2-methylimidazo[1,2-a]pyridine-3-carboxamide] | 1.00 |
| Cc1cc(OCc2c(F)cccc2F)c2nc(C)c(C(=O)NCC(C)N3CCOCC3)n2c1 (racemic) [Example 138, rac-8-[(2,6-difluorobenzyl)oxy]-2,6-dimethyl-N-[2-(morpholin-4-yl)propyl]imidazo[1,2-a]-pyridine-3-carboxamide] | 0.30 |
| CCCC(C)(N)CNC(=O)c1c(C2CC2)nc2c(OCc3c(F)cccc3F)cc(C)cn12 (stereo not drawn) [Example 322, ent-N-(2-amino-2-methylpentyl)-2-cyclopropyl-8-[(2,6-difluorobenzyl)oxy]-6-methylimidazo[1,2-a]pyridine-3-carboxamide] | 0.30 |
| COCC(C)(N)CNC(=O)c1c(C)nc2c(OCc3c(F)cccc3F)cccn12 (single isomer, unassigned) [Example 215, ent-N-(2-Amino-3-methoxy-2-methylpropyl)-8-[(2,6-difluorobenzyl)oxy]-2-methylimidazo[1,2-a]-pyridine-3-carboxamide] | 1.00 |
| Cc1nc2c(OCc3c(F)cccc3F)cccn2c1C(=O)NC1CCNc2ccc(C(F)(F)F)cc21 (single isomer, unassigned; ent-8) [Example 112, ent-8-[(2,6-difluorobenzyl)oxy]-2-methyl-N-[6-(trifluoromethyl)-1,2,3,4-tetrahydroquinolin-4-yl]imidazo[1,2-a]pyridine-3-carboxamide] | 0.10 |
| COC(=O)[C@@H](N)CNC(=O)c1c(C)nc2c(OCc3c(F)cccc3F)cc(C)cn12 [Example 319, Methyl 3-[({8-[(2,6-difluorobenzyl)oxy]-2,6-dimethylimidazo[1,2-a]pyridin-3-yl}carbonyl)amino]-L-alaninate] | 0.30 |
| CCCC(C)(N)CNC(=O)c1c(C)nc2c(OCc3c(F)cccc3F)cc(Br)cn12 (stereo not drawn) [Example 306, ent-N-(2-amino-2-methylpentyl)-6-bromo-8-[(2,6-difluorobenzyl)oxy]-2-methylimidazo[1,2-a]pyridine-3-carboxamide] | 0.10 |
| Cc1cc(OCc2c(F)cccc2F)c2nc(C)c(C(=O)NC3CNc4ccccc4C3)n2c1 (racemic) [Example 76, rac-8-[(2,6-difluorobenzyl)oxy]-2,6-dimethyl-N-(1,2,3,4-tetrahydroquinolin-3-yl)imidazo[1,2-a]-pyridine-3-carboxamide] | 0.30 |
| Cc1nc2c(OCc3c(F)cccc3F)cccn2c1C(=O)NC1CC2CCC(C1)N2C (stereo not drawn) [Example 91, 8-[(2,6-difluorobenzyl)oxy]-2-methyl-N-(8-methyl-8-azabicyclo[3.2.1]oct-3-yl)imidazo[1,2-a]pyridine-3-carboxamide] | 1.00 |
| Cc1nc2c(OCC3CCCCC3)cccn2c1C(=O)NC(CN)c1ccccc1 (racemic) [Example 44, rac-N-(2-Amino-1-phenylethyl)-8-(cyclohexylmethoxy)-2-methylimidazo[1,2-a]pyridine-3-carboxamide] | 0.30 |
| Cc1nc2c(OCc3c(F)cccc3F)cccn2c1C(=O)NC(CN)c1ccccc1 (racemic) [Example 16, rac-N-(2-Amino-1-phenylethyl)-8-[(2,6-difluorobenzyl)oxy]-2-methylimidazo[1,2-a]pyridine-3-carboxamide dihydrochloride] | 0.30 |
| Cc1cc(OCc2c(F)cccc2F)c2nc(C)c(C(=O)NC[C@@H]3CCCCN3)n2c1 [Example 172, 8-[(2,6-Difluorobenzyl)oxy]-2,6-dimethyl-N-[(2S)-piperidin-2-ylmethyl]imidazo[1,2-a]pyridine-3-carboxamide] | 0.30 |
| CCC(N)(CC)CNC(=O)c1c(C)nc2c(OCc3c(F)cccc3F)cccn12 [Example 253, N-(2-Amino-2-ethylbutyl)-8-[(2,6-difluorobenzyl)oxy]-2-methylimidazo[1,2-a]pyridine-3-carboxamide] | 0.10 |
| Cc1cc(OCc2c(F)cccc2F)c2nc(C)c(C(=O)NCCN3CCOCC3)n2c1 [Example 136, 8-[(2,6-difluorobenzyl)oxy]-2,6-dimethyl-N-[2-(morpholin-4-yl)ethyl]imidazo[1,2-a]pyridine-3-carboxamide] | 0.10 |
| Cc1nc2c(OCc3c(F)cccc3F)cc(Cl)cn2c1C(=O)NC1CNCc2ccccc21 (single isomer, unassigned; ent-6) [Example 107, ent-6-chloro-8-[(2,6-difluorobenzyl)oxy]-2-methyl-N-(1,2,3,4-tetrahydroisoquinolin-4-yl)imidazo[1,2-a]pyridine-3-carboxamide] | 0.30 |
| COCC(N)CNC(=O)c1c(C)nc2c(OCc3c(F)cccc3F)cc(C)cn12 (single isomer, unassigned) [Example 242, ent-N-(2-Amino-3-methoxypropyl)-8-[(2,6-difluorobenzyl)oxy]-2,6-dimethylimidazo[1,2-a]-pyridine-3-carboxamide] | 0.30 |
| Cc1cc(OCc2c(F)cccc2F)c2nc(C)c(C(=O)NCC(C)(N)CO)n2c1 (single isomer, unassigned; enantiomer a) [Example 268, ent-N-(2-Amino-3-hydroxy-2-methylpropyl)-8-[(2,6-difluorobenzyl)oxy]-2,6-dimethylimidazo-[1,2-a]pyridine-3-carboxamide (Enantiomer A)] | 0.55 |
